Measurements from patent publication US20260125359A1, “HETEROARYL COMPOUNDS AS MULTI-TARGET PROTEIN KINASE INHIBITORS” (FUJIAN HAIXI PHARMACEUTICALS CO., LTD., priority 2023, published 2026).
pIC50: −log10 of the molar value.

System: M-NFS-60 cells
Test: M-NFS-60 cell in vitro assay (CCK, 48 h, M-CSF factor medium)
Assay type: cell-based
Settings: M-NFS-60 cells; read-out: M-NFS-60cellassay IC50
Description: To determine the inhibitory activity of compounds on M-NFS-60 cells.
• M-NFS-60 cell line (ATCC, Cat. No.: CRL-1838) • RPMI-1640 medium (Gibco, domestic subpackage, Cat. No.: C11875500BT) • Recombinant Mouse CSF1/M-CSF (Sino Biological Inc., Cat. No.: 51112-MNAH) • PAN/Serum (BioTECH, Cat. No.: P30-2602) • Trypsin/0.05% Trypsin-EDTA (Gibco, Cat. No.: 25300-062) • 0.4% Trypan Blue (Sigma, Cat. No.: T8154-20 ml) • Penicillin-Streptomycin (Hyclone, Cat. No.: SV30010) • DMSO (Solarbio, Cat. No.: D8371) • PBS (Solarbio, Cat. No.: P1020) • CCK (AbMole BioScience, Cat. No.: M4839-500Tests)
• 1) M-CSF factor stock solution: take 10 μg of powdered m-CSF factor, add 0.4 ml of saline, formulate 25 ug/ml and store at −80° C. • 2) M-CSF factor (25 ng/ml) medium: • 1640 (Gibco)+10% PAN+100×Penicillin-Streptomycin+100×M-CSF stock solution • 3) Complete medium: • 1640 (Gibco)+10% PAN+100×Penicillin-Streptomycin • 4) Compound preparation: 2-3 mg of the compound was added to DMSO to formulate a 30 mM stock solution, −80° C. refrigerator storage
• 1) Cell resuscitation: the frozen cells in the cryovial were thawed rapidly by shaking in a 37° C. water bath, then 4 mL of medium was added. After mixing evenly, they were centrifuged at 125×g for 5 min, and the supernatant was discarded. The cells were resuspended and transferred to the culture flasks, and were cultured in a 5% CO2 fully saturated humidity incubator. • 2) Cell passaging: M-NFS-60 cells are semi-suspension cells, which were collected directly in a 15 mL centrifuge tube, centrifuged at 125×g for 5 min. and the supernatant was discarded. The cells were resuspended and passaged into new culture flasks at a ratio of 1:5 to 1:10. • 3) After the newly resuscitated cells were passaged 1-2 times for cell stabilization, compound inhibition assays were started when the cells were in the logarithmic growth phase. • (a) Cell collection and counting: the same as the cell passaging step, centrifuge in two tubes, one tube with M-CSF factor medium to resuspend the cells, the other tube with complete medium to resuspend the cells. Take 10 μL of cell suspension in each tube, and count the cells by Tepan blue staining. • (b) Dilute the cell solution according to the concentration of inoculated cells respectively, the concentration of M-NFS-60 cells inoculated with factor was 5.56×10^4 cells/mL, and the concentration of inoculated without factor was 5×10^4 cells/mL. • (c) Seed plate: 384 well plate inoculated with M-NFS-60 cells, 36 uL/well, triplicate wells, the number of inoculated cells was equivalent to 2000 cells/well, set with blank control, factor free negative control, normal control, DMSO control and experimental wells. The cells were placed in a 5% CO2 fully saturated humidity incubator for 4 h. • (d) Sampling compounds: 96 well plates were used for compound preparation. The compound solution prepared in advance was diluted to corresponding gradient concentration with DMSO. An appropriate amount of the diluted solution in the previous step was added to an equal volume of factor containing medium. The 96 well plates were centrifuged at 1000 rpm for 5 min, which played the role of defoaming and spinning down droplets and condensation. Remove the 384 well plate from the incubator, add the diluted compound solution into each well sequentially, 4 μL/well; DMSO wells and normal wells were added with corresponding factor containing medium, 4 μL/well. Then it was put into CO2 incubator for 48 h. • (e) After incubation for 48 h, CCK was added to each well, 4 uL, and the plates were placed in the incubator for another 2 h, and then the OD (optical density) value at 450 nm was measured by microplate reader.
The IC50 values for each test compound were fitted using professional graphing and analysis software.

Compound | pIC50
O=C(Nc1cccc(C2CC2)c1)c1cccc2c1CC[C@@H]2Nc1cnc2cn[nH]c2c1 [Compound 97, (S)-1-((1H-pyrazolo[4,3-b]pyridin-6-yl)amino)-N-(3-cyclopropylphenyl)-2,3-dihydro-1H-indene-4-carboxamide] | > 7.30
Cc1cccc(C(=O)Nc2cccc3c2CC[C@@H]3Nc2cncc(N3CCN(C)CC3)n2)c1 [Compound 31, (S)-3-methyl-N-(1-((6-(4-methylpiperazin-1-yl)pyrazin-2-yl)amino)-2,3-dihydro-1H-inden-4-yl)benzamide] | 6.30 to 6.70
Cn1ncc2ncc(N[C@H]3CCc4c(Nc5cc(C(C)(C)C(F)(F)F)on5)cccc43)nc21 [Compound 87, (S)—N′-(1-methyl-1H-pyrazolo[3,4-b]pyrazin-6-yl)-N^4-(5-(1,1,1-trifluoro-2-methylpropan-2-yl)isoxazol-3-yl)-2,3-dihydro-1H-indene-1,4-diamine] | > 7.30
Cn1cc2ncc(N[C@H]3CCc4c(Nc5cc(C6(C(F)(F)F)CC6)on5)cccc43)cc2n1 [Compound 91m] | > 7.30
CN(C)Cc1cccc(NC(=O)c2cccc3c2CC[C@@H]3Oc2cncc(-c3cnn(C)c3)c2)c1 [Compound 19e] | 6.70 to 7.30
Cn1cc(-c2cncc(N[C@H]3CCc4c(Nc5nc(C6CC6)cs5)cccc43)n2)cn1 [Compound 36b] | 6.70 to 7.30
Cn1ncc2ncc(O[C@H]3CCc4c(Nc5cc(C(C)(C)C)on5)cccc43)cc21 [Compound 95, (S)-5-(tert-butyl)-N-(1-((1-methyl-1H-pyrazolo[4,3-b]pyridin-6-yl)oxy)-2,3-dihydro-1H-inden-4-yl) isoxazol-3-amine] | 6.30 to 6.70
CN1CCc2nc(NC(=O)c3cccc4c3CC[C@@H]4N(C)c3cnc4cnn(C)c4c3)sc2C1 [Compound 80w] | 6.70 to 7.30
CN(C)Cc1ccc(NC(=O)c2cccc3c2CC[C@@H]3Nc2cncc(-c3cnn(C)c3)c2)cc1 [Compound 14au] | 6.70 to 7.30
COc1cccc(NC(=O)c2cccc3c2CC[C@@H]3Oc2cnc3cn(C)nc3c2)c1F [Compound 76az] | > 7.30
CC(C)NC(=O)c1cccc2c1CC[C@@H]2Nc1cncc(-c2cnn(C)c2)n1 [Compound 27e] | 6.70 to 7.30
CN(C)C(=O)c1cccc2c1CC[C@@H]2Nc1cncc(-c2cnn(C)c2)n1 [Compound 27d] | < 6.30
Cn1cc2ncc(N[C@H]3CCc4c(Nc5noc(C(C)(C)CF)n5)cccc43)cc2n1 [Compound 93o] | > 7.30
Cn1cc(-c2cncc(NC3CCc4c(NC(=O)c5ccc6c(c5)OC(F)(F)O6)cccc43)c2)cn1 (centres unmarked) [Compound 9, 2,2-difluoro-N-(1-((5-(1-methyl-1H-pyrazol-4-yl)pyridin-3-yl)amino)-2,3-dihydro-1H-inden-4-yl)benzo[d][1,3]dioxole-5-carboxamide] | 6.70 to 7.30
COc1cc(NC(=O)c2cccc3c2CC[C@@H]3Nc2cncc(-c3cnn(C)c3)n2)ccc1F [Compound 27o] | > 7.30
Cn1ncc2ncc(O[C@H]3CCc4c(NC(=O)c5cccc(C6CC6)c5)ccc(F)c43)cc21 [Compound 78a] | > 7.30
Cc1cccc(C(=O)Nc2cccc3c2CC[C@@H]3Nc2cncc(-c3cnn(C)c3)c2)c1 [Compound 12, (S)-3-methyl-N-(1-((5-(1-methyl-1H-pyrazol-4-yl)pyridin-3-yl)amino)-2,3-dihydro-1H-inden-4-yl)benzamide] | > 7.30
COc1cccc(C(=O)Nc2cccc3c2CCCC3Oc2cc(-c3cnn(C)c3)cnc2N)c1 (centres unmarked) [Compound 2a] | < 6.30
CN(c1cncc(-c2cnn(C)c2)c1)[C@H]1CCc2c(C(=O)Nc3cccc(C(F)(F)F)c3)cccc21 [Compound 22b] | > 7.30
Cn1cc(-c2cnc(N)c(O[C@H]3CCc4c(Nc5cc(C(C)(C)C)on5)cccc43)c2)cn1 [Compound 67, (S)—N-(1-((2-amino-5-(1-methyl-1H-pyrazol-4-yl)pyridin-3-yl)oxy)-2,3-dihydro-1H-inden-4-yl)-5-(tert-butyl) isoxazol-3-amine] | > 7.30
COc1cccc(C(=O)Nc2cccc3c2CCC3Oc2cc(-c3cnn(C)c3)cnc2N)c1 (centres unmarked) [Compound 1, N-(1-((2-amino-5-(1-methyl-1H-pyrazol-4-yl)pyridin-3-yl)oxy)-2,3-dihydro-1H-inden-4-yl)-3-methoxybenzamide] | 6.70 to 7.30

Compound | pIC50
Cc1ccc(F)c(NC(=O)c2cccc3c2CC[C@@H]3Oc2cnc3cnn(C)c3c2)c1 [Compound 76ah] | > 7.30
COc1cccc(NC(=O)c2cccc3c2CC[C@@H]3Oc2cnc3cnn(C)c3c2)c1F [Compound 76ak] | 6.70 to 7.30
Cn1cc(-c2cncc(NC3CC(F)c4c(NC(=O)c5ccc(C(F)(F)F)cc5)cccc43)c2)cn1 (centres unmarked) [Compound 71, N-(3-fluoro-1-((5-(1-methyl-1H-pyrazol-4-yl)pyridin-3-yl)amino)-2,3-dihydro-1H-inden-4-yl)-4-(trifluoromethyl)benzamide] | 6.30 to 6.70
Cn1cc2ncc(N[C@H]3CCc4c(Nc5noc(C67CC(F)(C6)C7)n5)cccc43)cc2n1 [Compound 93r] | > 7.30
CN(C)CCOc1cccc(NC(=O)c2cccc3c2CC[C@@H]3Oc2cncc(-c3cnn(C)c3)c2)c1 [Compound 19r] | 6.70 to 7.30
Cn1cc(-c2cncc(N[C@H]3CCc4c(Nc5cc(C(F)(F)F)nn5C)cccc43)c2)cn1 [Compound 42q] | < 6.30
Cn1cc(-c2cncc(N[C@H]3CCc4c(C(=O)NC(C)(C)C(F)(F)F)cccc43)n2)cn1 [Compound 27m] | < 6.30
Cn1ncc2ncc(N[C@H]3CCc4c(Nc5ncc(C(C)(C)C)s5)cccc43)cc21 [Compound 91f] | > 7.30
Cc1ccc(F)c(NC(=O)c2cccc3c2CC[C@@H]3N(C)c2cnc3cn(C)nc3c2)c1 [Compound 80n] | > 7.30
CN(c1cnc2cn(C)nc2c1)[C@H]1CCc2c(C(=O)Nc3cccc(C4CC4)c3)cccc21 [Compound 80b] | > 7.30
Cc1ccc(NC(=O)c2cccc(C3CC3)c2)c2c1[C@@H](Oc1cnc3cnn(C)c3c1)CC2 [Compound 78b] | < 6.30
Cn1cc(-c2cncc(N[C@H]3CCc4c(CNc5ccc(C(F)(F)F)cc5)cccc43)c2)cn1 [Compound 58, (S)-5-(1-methyl-1H-pyrazol-4-yl)-N-(4-(((4-(trifluoromethyl)phenyl)amino)methyl)-2,3-dihydro-1H-inden-1-yl) pyridin-3-amine] | < 6.30
Cc1cccc(NC(=O)c2cccc3c2CC[C@@H]3Nc2cnc3cn(C)nc3c2)c1F [Compound 74i] | > 7.30
CC(C)(C)c1ccnc(Nc2cccc3c2CC[C@@H]3Nc2cncc(Cl)c2)n1 [Compound 42h] | < 6.30
Cn1cc(-c2cncc(N[C@H]3CCc4c(NCc5cccc(Cl)c5)cccc43)n2)cn1 [Compound 60c] | < 6.30
CN(C)Cc1ccc(NC(=O)c2cccc3c2CC[C@@H]3Oc2cncc(-c3cnn(C)c3)c2)cc1 [Compound 19c] | 6.70 to 7.30
CN(c1cnc2cnn(C)c2c1)[C@H]1CCc2c(C(=O)Nc3cccc(C4CC4)c3)cccc21 [Compound 80a] | > 7.30
CN(c1cnc2cnn(C)c2c1)[C@H]1CCc2c(C(=O)Nc3ccc(F)c(Cl)c3)cccc21 [Compound 80r] | > 7.30
Cn1cc(-c2cncc(O[C@H]3CCc4c(C(=O)Nc5ccc6c(c5)OCCO6)cccc43)c2)cn1 [Compound 19n] | > 7.30
Cn1cc(-c2cncc(NC3COc4c(NC(=O)c5ccc(C(F)(F)F)cc5)cccc43)c2)cn1 (centres unmarked) [Compound 47, N-(3-((5-(1-methyl-1H-pyrazol-4-yl)pyridin-3-yl)amino)-2,3-dihydrobenzofuran-7-yl)-4-(trifluoromethyl)benzamide] | 6.70 to 7.30
